# The source made the active and inactive calls. The rule behind the calls is not given here.
# Experiments:
# [1] = test system: OVCAR-3; test: Induction of DNA damage in human OVCAR3 cells assessed as increase in gamma-H2AX levels at 10 uM in presence of topotecan; type: functional
# [2] = test system: Rattus norvegicus; test: Acute toxicity in rat assessed as red tinged urine at 10 mg/kg, iv administered for 30 mins measured post dose; type: organism-based; settings: in vivo, 0.5 h
# [3] = test system: Rattus norvegicus; test: Acute toxicity in rat assessed as lethargy at 10 mg/kg, iv administered for 30 mins measured after 1 hr post dose; type: organism-based; settings: in vivo
# [4] = test system: Mus musculus; test: Toxicity in athymic nude mouse xenografted with human TT cells at 7.5 to 15 mg/kg, ip qd administered for 2 weeks; type: organism-based; settings: in vivo, 336 h
# [5] = test system: Rattus norvegicus; test: Acute toxicity in rat assessed as recumbency at 10 mg/kg, iv administered for 30 mins measured after 1 hr post dose; type: organism-based; settings: in vivo
# [6] = test system: Rattus norvegicus; test: Acute toxicity in rat assessed as dark red mottled lungs at 10 mg/kg, iv administered for 30 mins measured post dose; type: organism-based; settings: in vivo, 0.5 h
# [7] = test system: Canis familiaris; test: Acute toxicity in female Beagle dog assessed as mortality at 0.625 to 20 mg/kg, iv measured after 5 mins of completion of dose 6 administration; type: organism-based, Canis lupus familiaris; settings: in vivo
# [8] = test system: Rattus norvegicus; test: Acute toxicity in rat assessed as lethargy at 10 mg/kg, iv administered for 30 mins measured at 1 hr post dose; type: organism-based; settings: in vivo
# [9] = test system: Rattus norvegicus; test: Acute toxicity in rat assessed as recumbency at 10 mg/kg, iv administered for 30 mins measured immediately and 10 mins post dose; type: organism-based; settings: in vivo
# [10] = test system: Canis familiaris; test: Acute toxicity in Beagle dog assessed as weight gain at 10 mg/kg, iv administered for 48 hrs followed by 20 mg/kg, iv administered for 3 days measured everyday after second dose; type: organism-based, Canis lupus familiaris; settings: in vivo
# [11] = test system: Canis familiaris; test: Acute toxicity in Beagle dog assessed as adverse events at 10 mg/kg, iv administered for 48 hrs followed by 20 mg/kg, iv administered for 3 days measured everyday after second dose; type: organism-based, Canis lupus familiaris; settings: in vivo
# [12] = test system: Rattus norvegicus; test: Acute toxicity in rat assessed as induction of red urine excretion at 10 mg/kg, iv administered for 30 mins measured after 1 hr post dose; type: organism-based; settings: in vivo
# [13] = test system: Mus musculus; test: Toxicity in athymic nude mouse xenografted with human HT-29 cells assessed as overt toxicity at 10 to 20 mg/kg, ip qd administered 5 days for 2 weeks; type: organism-based; settings: in vivo
# [14] = test system: Canis familiaris; test: Acute toxicity in Beagle dog assessed as thrombus formation in veins at 10 mg/kg, iv administered for 48 hrs followed by 20 mg/kg, iv administered for 3 days measured post dose; type: organism-based, Canis lupus familiaris; settings: in vivo
# [15] = test system: Rattus norvegicus; test: Acute toxicity in rat assessed as normal appearance at 0.625 to 10 mg/kg, iv administered as single dose for 30 mins measured on day 4; type: organism-based; settings: in vivo, 0.5 h
# [16] = test system: Rattus norvegicus; test: Acute toxicity in rat assessed as red urine at 0.625 to 10 mg/kg, iv administered as single dose for 30 mins measured immediately, 10 mins and 1 hr post dose; type: organism-based; settings: in vivo
# [17] = test system: Mus musculus; test: Toxicity in athymic nude mouse xenografted with human A549 cells assessed as loss of body weight at 50 to 150 mg/kg, po qd administered 5 days for 3 weeks; type: organism-based; settings: in vivo
# [18] = test system: Canis familiaris; test: Acute toxicity in Beagle dog assessed as depression at 0.625 to 20 mg/kg, iv dosed with 48 to 96 hrs between dose escalations with exception of 11 days between dose 5 and 6 measured during dose 6 administration; type: organism-based, Canis lupus familiaris; settings: in vivo
# [19] = test system: Canis familiaris; test: Acute toxicity in Beagle dog assessed as anxiety at 0.625 to 20 mg/kg, iv dosed with 48 to 96 hrs between dose escalations with exception of 11 days between dose 5 and 6 measured during dose 6 administration; type: organism-based, Canis lupus familiaris; settings: in vivo
# [20] = test system: Canis familiaris; test: Acute toxicity in male Beagle dog assessed as mild venous congestion in meningeal vein between brain hemispheres and in venous sinus on cranial floor at 10 mg/kg, iv administered for 48 hrs followed by 20 mg/kg, iv administered for 3 days measured post dose; type: organism-based, Canis lupus familiaris; settings: in vivo
# [21] = test system: Canis familiaris; test: Acute toxicity in Beagle dog assessed as facial swelling at 0.625 to 20 mg/kg, iv dosed with 48 to 96 hrs between dose escalations with exception of 11 days between dose 5 and 6 measured during dose 6 administration; type: organism-based, Canis lupus familiaris; settings: in vivo
# [22] = test system: Rattus norvegicus; test: Acute toxicity in rat assessed as induction of red urine excretion at 10 mg/kg, iv administered for 30 mins measured immediately, 10 mins and 1 hr post dose; type: organism-based; settings: in vivo
# [23] = test system: Canis familiaris; test: Acute toxicity in male Beagle dog assessed as animal appearance at 0.625 to 20 mg/kg, iv dosed with 48 to 96 hrs between dose escalations with exception of 11 days between dose 5 and 6 measured following day after dose 6 administration; type: organism-based, Canis lupus familiaris; settings: in vivo
# [24] = test system: Mus musculus; test: Toxicity in athymic nude mouse xenografted with human HT-29 cells assessed as loss of body weight at 10 to 20 mg/kg, ip qd administered 5 days for 2 weeks; type: organism-based; settings: in vivo
# [25] = test system: Canis familiaris; test: Acute toxicity in Beagle dog assessed as urination at 0.625 to 20 mg/kg, iv dosed with 48 to 96 hrs between dose escalations with exception of 11 days between dose 5 and 6 measured during dose 6 administration; type: organism-based, Canis lupus familiaris; settings: in vivo
# [26] = test system: Canis familiaris; test: Acute toxicity in Beagle dog assessed as defecation at 0.625 to 20 mg/kg, iv dosed with 48 to 96 hrs between dose escalations with exception of 11 days between dose 5 and 6 measured during dose 6 administration; type: organism-based, Canis lupus familiaris; settings: in vivo
# [27] = test system: Canis familiaris; test: Acute toxicity in Beagle dog assessed as weight gain at 0.625 to 20 mg/kg, iv dosed with 48 to 96 hrs between dose escalations with exception of 11 days between dose 5 and 6 measured during course of 21 study days; type: organism-based, Canis lupus familiaris; settings: in vivo
# [28] = test system: Canis familiaris; test: Acute toxicity in female Beagle dog assessed as intestinal mucosal congestion at 0.625 to 20 mg/kg, iv administered with 48 to 96 hrs between dose escalations with exception of 11 days between dose 5 and 6 measured after 21 days; type: organism-based, Canis lupus familiaris; settings: in vivo, 504 h
# [29] = test system: Canis familiaris; test: Acute toxicity in Beagle dog at 20 mg/kg, iv; type: organism-based, Canis lupus familiaris; settings: in vivo
# [30] = test system: Canis familiaris; test: Acute toxicity in male Beagle dog assessed as adverse clinical signs at 10 mg/kg, iv; type: organism-based, Canis lupus familiaris; settings: in vivo
# [31] = test system: Canis familiaris; test: Acute toxicity in Beagle dog assessed as recumbency at 0.625 to 20 mg/kg, iv dosed with 48 to 96 hrs between dose escalations with exception of 11 days between dose 5 and 6 measured during dose 6 administration; type: organism-based, Canis lupus familiaris; settings: in vivo
# [32] = test system: Canis familiaris; test: Acute toxicity in female Beagle dog assessed as meningeal vessel congestion at 0.625 to 20 mg/kg, iv administered with 48 to 96 hrs between dose escalations with exception of 11 days between dose 5 and 6 measured after 21 days; type: organism-based, Canis lupus familiaris; settings: in vivo, 504 h
# [33] = test system: Rattus norvegicus; test: Acute toxicity in rat assessed as loss of body weight at 0.625 to 10 mg/kg, iv administered as single dose for 30 mins measured on day 2; type: organism-based; settings: in vivo, 0.5 h
# [34] = test system: Rattus norvegicus; test: Acute toxicity in rat assessed as wobbly appearance at 0.625 to 10 mg/kg, iv administered as single dose for 30 mins measured immediately, 10 mins and 1 hr post dose; type: organism-based; settings: in vivo
# [35] = test system: Rattus norvegicus; test: Acute toxicity in rat assessed as normal appearance at 10 mg/kg, iv administered for 30 mins measured on day 4; type: organism-based; settings: in vivo, 0.5 h
# [36] = test system: Rattus norvegicus; test: Acute toxicity in rat assessed as mortality at 10 mg/kg, iv administered for 30 mins measured post dose; type: organism-based; settings: in vivo, 0.5 h
# [37] = test system: Rattus norvegicus; test: Acute toxicity in rat assessed as bright red lungs at 10 mg/kg, iv administered as single dose for 30 mins measured on day 4; type: organism-based; settings: in vivo, 0.5 h
# [38] = test system: Rattus norvegicus; test: Acute toxicity in rat assessed as labored breathing at 10 mg/kg, iv administered for 30 mins measured immediately and 10 mins post dose; type: organism-based; settings: in vivo
# [39] = test system: Canis familiaris; test: Acute toxicity in Beagle dog assessed as animal appearance at 0.625 to 20 mg/kg, iv administered with 48 to 96 hrs between dose escalations with exception of 11 days between dose 5 and 6 measured after doses 1 through 5 and prior to dose 6; type: organism-based, Canis lupus familiaris; settings: in vivo
# [40] = test system: A549; test: Antitumor activity against human A549 cells xenografted in athymic nude mouse assessed as tumor growth at 10 mg/kg, po qd administered 5 days for 3 weeks measured on day 26 (reference value: 43 mm3/day); type: functional
# [41] = biological target: Mast/stem cell growth factor receptor Kit (Homo sapiens) (UniProt P10721); test: Inhibition of c-Kit in human PANC1 cells assessed as reduction in Erk phosphorylation at 50 uM; type: cell-based
# Sequence of Mast/stem cell growth factor receptor Kit (Homo sapiens) (P10721 whole entry): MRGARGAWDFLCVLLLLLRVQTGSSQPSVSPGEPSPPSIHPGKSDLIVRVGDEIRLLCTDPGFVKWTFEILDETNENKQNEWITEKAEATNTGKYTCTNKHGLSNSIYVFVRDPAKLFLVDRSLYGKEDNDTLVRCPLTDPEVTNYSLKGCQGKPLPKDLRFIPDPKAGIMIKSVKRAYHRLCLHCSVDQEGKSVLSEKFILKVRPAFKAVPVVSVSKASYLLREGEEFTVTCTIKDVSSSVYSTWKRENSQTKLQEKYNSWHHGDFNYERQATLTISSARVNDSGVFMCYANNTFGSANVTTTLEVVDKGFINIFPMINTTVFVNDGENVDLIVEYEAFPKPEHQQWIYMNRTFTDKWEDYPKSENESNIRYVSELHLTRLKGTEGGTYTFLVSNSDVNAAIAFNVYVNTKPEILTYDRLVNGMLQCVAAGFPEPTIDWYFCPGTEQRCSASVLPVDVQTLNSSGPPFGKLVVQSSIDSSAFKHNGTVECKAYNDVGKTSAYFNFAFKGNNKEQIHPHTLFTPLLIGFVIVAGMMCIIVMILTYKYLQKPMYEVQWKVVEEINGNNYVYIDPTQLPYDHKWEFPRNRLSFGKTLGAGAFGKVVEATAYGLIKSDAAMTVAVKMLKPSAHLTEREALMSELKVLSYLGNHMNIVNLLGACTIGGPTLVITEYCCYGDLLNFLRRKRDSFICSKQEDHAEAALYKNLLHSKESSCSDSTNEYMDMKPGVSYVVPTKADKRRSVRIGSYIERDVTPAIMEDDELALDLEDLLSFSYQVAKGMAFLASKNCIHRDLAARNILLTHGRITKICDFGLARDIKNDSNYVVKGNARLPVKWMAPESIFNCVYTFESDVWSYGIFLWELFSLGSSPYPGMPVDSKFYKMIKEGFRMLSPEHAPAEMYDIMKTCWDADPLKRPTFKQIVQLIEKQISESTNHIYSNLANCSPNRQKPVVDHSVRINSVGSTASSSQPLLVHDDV
# [42] = test system: MIA PaCa-2; test: Antitumor activity against human MIAPaCa2 cells xenografted in athymic nude mouse assessed as reduction in tumor growth at 5 mg/kg, iv administered every 7 days for 28 days; type: functional, organism-based
# [43] = test system: HT-29; test: Suppression of ionizing radiation-induced Rad51 expression in human HT-29 cells pretreated with compound followed by ionizing radiation by Western blot analysis; type: functional, cell-based
# [44] = test system: OVCAR-3; test: Cytostatic activity against human OVCAR3 cells assessed as reduction in cell proliferation; type: functional, cell-based
# [45] = test system: A549; test: Suppression of Rad51 expression in human A549 cells at 0.71 to 3.82 uM after 24 hrs by probing blot analysis; type: functional, cell-based
# [46] = test system: TT; test: Antitumor activity against human TT cells xenografted in ip dosed athymic nude mouse assessed as reduction in tumor growth administered as qd for 2 weeks; type: functional, organism-based
# [47] = test system: OVCAR-3; test: Antitumor activity against human OVCAR3 cells xenografted in po dosed athymic nude mouse assessed as reduction in tumor growth administered as qd for 28 days; type: functional, organism-based
# [48] = test system: Canis familiaris; test: In vivo inhibition of Rad51 expression in po dosed Beagle dog skin administered daily for 28 days measured post last dose by immunohistochemistry staining based assay; type: functional, organism-based; settings: Canis lupus familiaris
# [49] = test system: HT-29; test: Suppression of cisplatin-induced Rad51 expression in human HT-29 cells xenografted in in-vivo model by Western blot analysis; type: functional, cell-based
# [50] = test system: MIA PaCa-2; test: Antitumor activity against human MIAPaCa2 cells xenografted in athymic nude mouse assessed as reduction in tumor growth at 2.5 to 5 mg/kg, iv administered every 3 days for 28 days; type: functional, organism-based
# [51] = test system: SF-767; test: Cytotoxicity against human SF-767 cells assessed as cell death at 1 uM in presence of […] ionizing radiation after 24 hrs by MTS assay; type: functional, cell-based
# [52] = test system: SBcl2; test: Antitumor activity against human SBcl2 cells xenografted in ip dosed athymic nude mouse assessed as reduction in tumor growth administered as qd for 5 days; type: functional, organism-based
# [53] = test system: SF-767; test: Cytotoxicity against human SF-767 cells assessed as cell death at 1 uM after 24 hrs by MTS assay; type: functional, cell-based
# [54] = test system: A549; test: Antitumor activity against human A549 cells xenografted in athymic nude mouse assessed as reduction in tumor growth at 50 mg/kg, po qd administered for 21 days in presence of 30 mg/kg carboplatin; type: functional, organism-based
# [55] = test system: A549; test: Antitumor activity against human A549 cells xenografted in athymic nude mouse assessed as reduction in tumor growth at 50 mg/kg, po qd administered for 21 days in presence of 30 mg/kg carboplatin/ 20 mg/kg taxol; type: functional, organism-based
compound,measurement,setting,value
S=C(NCc1ccc2c(c1)OCO2)N1CCN(c2ncnc3c2oc2ccccc23)CC1 [AMUVATINIB],Activity,[1],103%
same,Activity,[2],Toxic
same,Activity,[3],Non-Toxic
same,Activity,[4],Non-Toxic
same,Activity,[5],Non-Toxic
same,Activity,[6],Toxic
same,Activity,[7],Toxic
same,Activity,[8],Toxic
same,Activity,[9],Toxic
same,Activity,[10],Toxic
same,Activity,[11],Toxic
same,Activity,[12],Non-Toxic
same,Activity,[13],Toxic
same,Activity,[14],Toxic
same,Activity,[15],Non-Toxic
same,Activity,[16],Toxic
same,Activity,[17],Non-Toxic
same,Activity,[18],Toxic
same,Activity,[19],Toxic
same,Activity,[20],Toxic
same,Activity,[21],Toxic
same,Activity,[22],Toxic
same,Activity,[23],Non-Toxic
same,Activity,[24],Non-Toxic
same,Activity,[25],Toxic
same,Activity,[26],Toxic
same,Activity,[27],Toxic
same,Activity,[28],Toxic
same,Activity,[29],Toxic
same,Activity,[30],Non-Toxic
same,Activity,[31],Toxic
same,Activity,[32],Toxic
same,Activity,[33],Toxic
same,Activity,[34],Toxic
same,Activity,[35],Non-Toxic
same,Activity,[36],Toxic
same,Activity,[37],Toxic
same,Activity,[38],Toxic
same,Activity,[39],Non-Toxic
same,Activity,[40],19.5 mm3/day
S=C(NCc1ccc2c(c1)OCO2)N1CCN(c2ncnc3c2oc2ccccc23)CC1,inhibition,[41],Active
same,Activity,[42],Active
same,inhibition,[43],Active
same,Activity,[44],Active
same,Activity,[45],inactive
same,Activity,[46],Dose-dependent effect
same,Activity,[47],Dose-dependent effect
same,inhibition,[48],Dose-dependent effect
same,inhibition,[49],Active
same,Activity,[50],Active
same,Activity,[51],Active
same,Activity,[52],Active
same,Activity,[53],Active
same,Activity,[54],Active
same,Activity,[55],Active
